Tests used:
[1] = rat; cited from earlier work
[2] = biological target: T1, VP16-PYLcs and Gal4 DBD-ABIcs (Arabidopsis thaliana, UniProt Q8VZS8); assay: ABA-induced luciferase activation (ABA-activator cassette + UAS-luciferase reporter); type: cell-based
T1 construct: HA (from the reverse primer); expressed in transfected cells; host or cells: CHO; also HEK 293/293T, NIH3T3, COS7, B35, Jurkat, E14, TC1, MEF
T1 sequence (Q8VZS8 33-209): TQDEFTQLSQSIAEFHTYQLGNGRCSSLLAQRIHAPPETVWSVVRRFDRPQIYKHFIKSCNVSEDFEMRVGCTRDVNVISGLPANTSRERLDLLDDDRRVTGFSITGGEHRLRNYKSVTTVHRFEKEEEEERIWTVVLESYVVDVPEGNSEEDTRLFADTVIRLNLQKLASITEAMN
T1 sequence (P49597 126-423 partner): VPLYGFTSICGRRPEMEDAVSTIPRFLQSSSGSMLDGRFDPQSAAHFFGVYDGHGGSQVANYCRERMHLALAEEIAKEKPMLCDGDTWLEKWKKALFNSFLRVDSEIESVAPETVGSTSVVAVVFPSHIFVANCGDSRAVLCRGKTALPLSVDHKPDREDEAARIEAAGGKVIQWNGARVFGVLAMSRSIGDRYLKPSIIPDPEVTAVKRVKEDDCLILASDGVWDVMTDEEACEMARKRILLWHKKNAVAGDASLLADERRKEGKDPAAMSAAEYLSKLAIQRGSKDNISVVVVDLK
Source text: Activation construct: A fragment of PYL1 (one of PYR/PYL/RCAR members) (aa 33-209, also referred to as “PYLcs”) was linked to a transcriptional activation domain and a fragment of ABI1 (one of PP2C members) (aa 126-423, SEQ ID NO:2, also referred to as “ABIcs”) was linked to a DNA binding domain using recombinant DNA methods. In the constructs illustrated in FIG. 1 and FIG. 2, PYL1 (“PYLcs”) is fused to the VP16 activation domain and ABI1 (“ABIcs”) is fused to the Gal4 DNA binding domain. These two regulatory elements are linked by IRES and driven by the SV40 early promoter. Reporter constructs: Full length Luciferase is driven by Fos gene minimal promoter with 5 copies of Gal4 DNA binding sites immediately upstream of Fos promoter. GFP reporter is driven by IL2 minimal promoter with 5×Gal4 DNA binding sites upstream.
CHO, HEK 293T, NIH 3T3, B35, MEF, and COS7 cells were cultured in Dulbecco's modified Eagle's medium (DMEM) (Gibco) with 10% FBS (Omega Scientific), 1× glutamate (Gibco), and 1× penicillin/streptomycin (Pen/Strep; Gibco). Jurkat cells were cultured in RPMI 1640 (Gibco) with 10% FBS, 1× glutamate, and 1×Pen/Strep. E14 and TC1 were cultured in Knockout DMEM (Gibco) with 7.5% ES FBS (Applied Stem Cell), 7.5% knockout SR (Gibco), 1× Hepes (Gibco), 1× sodium pyruvate (Gibco), 1×MEM NEAA (nonessential amino acids; Gibco), 1×2-mercaptoethanol (Gibco), 1× glutamate, 1×Pen/Strep, and leukemia inhibitory factor (LIF) on gelatin (Millipore)-coated plates. Cells (50,000 to 200,000) were plated in a well of a 24-well plate the day before transfection. An amount of 0.1 to 0.5 μg of DNA of each construct was mixed with 50× (v/w) Opti-MEM (Gibco), and then 3× (v/w) FuGENE HD (Roche) was added and thoroughly mixed. After incubation at room temperature for 20 min, the mixture was added to the cells and cultured for 24 to 48 hours before experiments were performed.
Cells in 24-well plates were lysed with 100 μl of 1× Passive Lysis Buffer (Promega) at room temperature for 10 min on a shaker (˜80 rpm). Cell lysates were then spun down (16,000 g) and 10 μl of supernatant was used for luciferase assay. Luciferase substrate solution [100 μl; 5 mg of D-luciferin (BD Biosciences) and 7 mg of coenzyme A (Sigma) in 33 ml of luciferase reading buffer: 20 mM tricine, 1.07 mM (MgCO3)4Mg(OH)2.5H2O, 2.67 mM MgSO4, 0.1 mM EDTA, 33.3 mM dithiothreitol (DTT), and 0.53 mM ATP in water] was added to the cell lysates, and signal was read with a 3-s delay and 1-s integration with a Turner BioSystem Modulus microplate reader. Obtained data were analyzed by Prism 5 (GraphPad Software).
The inducible gene activation module illustrated in FIG. 1 was introduced into a mammalian cell line (CHO, Chinese Hamster Ovary cells) along with a luciferase reporter to test the inducibility of gene activation by ABA, as shown in FIG. 2.
To assay the ability of ABA to induce effective proximity of chimeric proteins, the ability of ABA to reconstitute protein domains was tested. In this strategy, ABA was used to induce the proximity of the yeast Gal4 DNA binding domain (Gal4 DBD) to the herpes simplex virus VP16 transactivation domain (VP16AD) (FIG. 2B). […] The VP16AD, when tethered to DNA binding domains, strongly activates transcription but cannot act without proximity to a DNA binding domain. To test gene activation by ABA-induced proximity of Gal4 DBD and VP16AD, an ABA-activator cassette was constructed by fusing Gal4 DBD to the domain of ABI1 that interacts with PYL1 (the complementary surface of ABI1, or “ABIcs”) and VP16AD to the domain of PYL1 that interacts with ABI1 (the complementary surface of PYL1, or “PYLcs”) (FIG. 2B).
The ABA-induced domain reconstitution leading to induction of gene expression was compared to a similar system in Chinese hamster ovary (CHO) cells controlled by Rap, which has wild-type FKBP12 and Frb replacing ABIcs and PYLcs, respectively, in the chimeric proteins. […]

[3] = E14 and CHO cells (FIG. 12D, FIG. 19)

CC1=CC(=O)CC(C)(C)C1(O)/C=C/C(C)=C/C(=O)O (stereo not drawn) [ABA, abscisic acid]
acute oral median lethal dose (LD50) [1]: > 5000 mg/kg | gene activation in different cell types ([2]; 100 μM, 24 hours, CHO, NIH3T3, HEK293T, COS7, B35, Jurkat, E14, TC1, MEF): observed in all cell types tested | change in protein activity relative to untreated cells (factor) ([2]; ABA system): > 1000 | specificity of luciferase induction (ABA vs Rap protein pairs) ([2]; CHO and NIH 3T3 cells, 24 hours): only induced by matching small-molecule and dimerizing protein pairs | relative activation change compared with Rap ([2]; CHO cells): comparable | reversibility of luciferase transcription upon removal ([2]; CHO cells, 100 μM for 24 hours then ABA-free media): fully reversible | dose response of transactivation ([2]; CHO cells, 24 hours): large linear range | time for gene activation to reverse to background after withdrawal ([2]; CHO cells, induced 24 hours, washed five times with fresh medium): ≤ 24 h | time at which activation of luciferase was first observed after addition [2, 3]: 1.5 h | time to reach maximum luciferase activation [2, 3]: ≤ 24 h | relative activation change compared with Rap ([2]; E14 cells): much higher | luciferase production induced ([2]; murine embryonic stem (ES) cells, NIH 3T3 and HEK 293T cells, 24 hours): more than three orders of magnitude

Reference: patent US20130158098A1, “Alkenyl Substituted Cycloaliphatic Compounds as Chemical Inducers of Proximity” (priority 2010, published 2013)
